The numbers were not newly measured in US11986479B2 (priority 2022, dated 2024), which cites them from elsewhere.

Assay in data set [1]: not given
This is another data set of the same source.

Assay in data set [2]: not given
This is another data set of the same source.

Read-outs that look alike come from different tables or passages of the source.

As for `Sc1ncnc2nc[nH]c12` [Mercaptopurine, 6H-purine-6-thione, 1,7-dihydro-, monohydrate], for the setting “ether”, the solubility in ether entry is “practically insoluble”. In data set [1] (leukemia patients), the “patients who experienced diarrhea” value was 9%.

With `Cn1cnc([N+](=O)[O-])c1Sc1ncnc2nc[nH]c12` [Azathoprine, 1H-Purine, 6-[(1-methyl-4-nitro-1H-imidazol-5-yl)thio]-], for the setting “solutions of alkali hydroxides / one molar equivalent of alkali”, the solubility in alkali result was “may be dissolved”. Also, the solubility in water result (water) is “insoluble”. Besides, the “stability in the presence of sulfhydryl compounds” value in data set [2] (cysteine, glutathione, hydrogen sulfide) is “Conversion to mercaptopurine also occurs”. For the same compound, the stability in solution entry was “hydrolysis to mercaptopurine occurs” in data set [2] (excess sodium hydroxide (0.1N), especially on warming) and “stable” in data set [2] (neutral or acid pH).

On to `C[C@@H]1C[C@H]2[C@@H]3CCC4=CC(=O)C=C[C@]4(C)[C@@]3(F)[C@@H](O)C[C@]2(C)[C@@]1(O)C(=O)CO` [Dexamethasone, 9-fluoro-11β,17,21-trihydroxy-16α-methylpregna-1,4-diene-3,20-dione], for which the solubility in water result (water) is “practically insoluble”. Besides, the stability in air entry in data set [2] (air) is recorded as “stable”.

For the compound `CCN(CC)C(=S)SSC(=S)N(CC)CC` [Disulfiram, bis(diethylthiocarbamoyl) disulfide], for the setting “alcohol”, the soluble in alcohol result is “about 3.8 g in 100 mL”. Moreover, the soluble in water entry (water) was “about 20 mg in 100 mL”. Moreover, the “diarrhea in list of adverse reactions” value in data set [1] (in vivo) is “not mentioned”.
